# Measurements published in PubChem BioAssay AID258 (DTP/NCI, 2004).
# Values joined by “and” are separate entries in the source; they are usually repeats but may differ in a detail not shown here. Identical values can stand only once. Inconclusive results and toxic doses are left out.
# Tested on: CD2F1 mice, L1210 leukemia sc, survival T/C
# Assay: NCI In Vivo Anticancer Drug Screen. Data for tumor model L1210 Leukemia (subcutaneous) in CD2F1 (CDF1) mice
# Settings: higher = longer survival
# In short: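 T/C ratio: treated-group survival or tumor size over vehicle-control group measurement, in mice carrying transplanted tumors.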
# [1] = endpoint: median survival time, dose: 14.0 mg/kg/injection, schedule: Q01DX Z (sc), vehicle: water
# [2] = endpoint: median survival time, dose: 23.0 mg/kg/injection, schedule: Q01DX Z (sc), vehicle: water
# [3] = endpoint: median survival time, dose: 39.0 mg/kg/injection, schedule: Q01DX Z (sc), vehicle: water
# [4] = endpoint: median survival time, dose: 65.0 mg/kg/injection, schedule: Q01DX Z (sc), vehicle: water
# [5] = endpoint: median survival time, dose: 180.0 mg/kg/injection, schedule: Q01DX Z (sc), vehicle: water
# [6] = endpoint: median survival time, dose: 8.4 mg/kg/injection, schedule: Q01DX Z (sc), vehicle: water
structure (smiles),measurement,setting,value
O=NN(CCCl)C(=O)NC12CC3CC(CC(C3)C1)C2,T/C,"endpoint: median survival time, dose: 6.25 mg/kg/injection, schedule: Q01DX Z (sc), vehicle: carboxymethylcellulose (CMC)",100 % of control
same,T/C,"endpoint: median survival time, dose: 12.5 mg/kg/injection, schedule: Q01DX Z (sc), vehicle: carboxymethylcellulose (CMC)",100 % of control
same,T/C,"endpoint: median survival time, dose: 25.0 mg/kg/injection, schedule: Q01DX Z (sc), vehicle: carboxymethylcellulose (CMC)",110 % of control
same,T/C,"endpoint: median survival time, dose: 50.0 mg/kg/injection, schedule: Q01DX Z (sc), vehicle: carboxymethylcellulose (CMC)",325 % of control
same,T/C,"endpoint: median survival time, dose: 100.0 mg/kg/injection, schedule: Q01DX Z (sc), vehicle: carboxymethylcellulose (CMC)",240 % of control
COc1ccc2c(c1OC)C(=O)O[C@@H]2[C@H]1c2c(cc3c(c2OC)OCO3)CCN1C,T/C,[1],100 % of control
same,T/C,[2],100 % of control
same,T/C,[3],100 % of control
same,T/C,[4],100 % of control
same,T/C,"endpoint: median survival time, dose: 108.0 mg/kg/injection, schedule: Q01DX Z (sc), vehicle: water",100 % of control
same,T/C,[5],100 % of control
same,T/C,"endpoint: median survival time, dose: 300.0 mg/kg/injection, schedule: Q01DX Z (sc), vehicle: water",100 % of control
same,T/C,"endpoint: median survival time, dose: 500.0 mg/kg/injection, schedule: Q01DX Z (sc), vehicle: water",100 % of control
O=C[C@@H](CO)O[C@H](C=O)c1c[nH]c(=O)[nH]c1=O,T/C,"endpoint: median survival time, dose: 54.0 mg/kg/injection, schedule: Q04DX003 (ip), vehicle: saline",106 % of control
same,T/C,"endpoint: median survival time, dose: 90.0 mg/kg/injection, schedule: Q04DX003 (ip), vehicle: saline",123 % of control
C[n+]1c2ccccc2nc2c(N)cc(N)cc21,T/C,"endpoint: median survival time, dose: 3.0 mg/kg/injection, schedule: Q01DX Z (ip), vehicle: water",100 % of control
same,T/C,"endpoint: median survival time, dose: 5.0 mg/kg/injection, schedule: Q01DX Z (ip), vehicle: water",100 % of control
same,T/C,"endpoint: median survival time, dose: 5.0 mg/kg/injection, schedule: Q01DX Z (sc), vehicle: water",100 % of control
same,T/C,"endpoint: median survival time, dose: 8.4 mg/kg/injection, schedule: Q01DX Z (ip), vehicle: water",100 % of control
same,T/C,[6],100 % of control
same,T/C,"endpoint: median survival time, dose: 14.0 mg/kg/injection, schedule: Q01DX Z (ip), vehicle: water",100 % of control
same,T/C,[1],100 % of control
same,T/C,"endpoint: median survival time, dose: 23.0 mg/kg/injection, schedule: Q01DX Z (ip), vehicle: water",100 % of control
same,T/C,[2],111 % of control
same,T/C,"endpoint: median survival time, dose: 39.0 mg/kg/injection, schedule: Q01DX Z (ip), vehicle: water",111 % of control
same,T/C,[3],111 % of control
C[C@]12C=CC(=O)C=C1CC[C@@H]1[C@@H]2C(=O)C[C@@]2(C)[C@H]1CC[C@]2(O)C(=O)CO,T/C,[5],122 % of control
same,T/C,"endpoint: median survival time, dose: 180.0 mg/kg/injection, schedule: Q02DX Z (sc), vehicle: water",154 % of control
same,T/C,"endpoint: median survival time, dose: 500.0 mg/kg/injection, schedule: Q#A X Z (sc), vehicle: water",122 % of control
Cc1cc(NCCCCCCCNc2cc(C)nc3cc(N)ccc23)c2ccc(N)cc2n1,T/C,"endpoint: median survival time, dose: 1.56 mg/kg/injection, schedule: Q01DX009 (ip), vehicle: water",100 % of control and 104 % of control and 98 % of control
same,T/C,"endpoint: median survival time, dose: 3.12 mg/kg/injection, schedule: Q01DX009 (ip), vehicle: water",109 % of control and 110 % of control and 121 % of control
same,T/C,"endpoint: median survival time, dose: 6.25 mg/kg/injection, schedule: Q01DX009 (ip), vehicle: water",120 % of control
same,T/C,"endpoint: median survival time, dose: 12.5 mg/kg/injection, schedule: Q01DX009 (ip), vehicle: water",156 % of control and 175 % of control
same,T/C,"endpoint: median survival time, dose: 25.0 mg/kg/injection, schedule: Q01DX009 (ip), vehicle: water",120 % of control
Nc1n[nH]c2ccccc12,T/C,"endpoint: median survival time, dose: 25.0 mg/kg/injection, schedule: Q01DX005 (ip), vehicle: acid diluted with saline",102 % of control
same,T/C,"endpoint: median survival time, dose: 25.0 mg/kg/injection, schedule: Q01DX009 (ip), vehicle: acid diluted with saline",113 % of control
same,T/C,"endpoint: median survival time, dose: 50.0 mg/kg/injection, schedule: Q01DX005 (ip), vehicle: acid diluted with saline",106 % of control
same,T/C,"endpoint: median survival time, dose: 50.0 mg/kg/injection, schedule: Q01DX009 (ip), vehicle: acid diluted with saline",99 % of control
same,T/C,"endpoint: median survival time, dose: 100.0 mg/kg/injection, schedule: Q01DX005 (ip), vehicle: acid diluted with saline",104 % of control
same,T/C,"endpoint: median survival time, dose: 100.0 mg/kg/injection, schedule: Q01DX009 (ip), vehicle: acid diluted with saline",103 % of control
same,T/C,"endpoint: median survival time, dose: 200.0 mg/kg/injection, schedule: Q01DX005 (ip), vehicle: acid diluted with saline",110 % of control
Nc1ccn(C2OC(COP(=O)(O)O)C(O)C2O)c(=O)n1 (configuration not stated),T/C,"endpoint: mean survival time, dose: 22.5 mg/kg/injection, schedule: Q ##X009 (ip), vehicle: saline",181 % of control
same,T/C,"endpoint: mean survival time, dose: 45.0 mg/kg/injection, schedule: Q ##X009 (ip), vehicle: saline",206 % of control
same,T/C,"endpoint: mean survival time, dose: 90.0 mg/kg/injection, schedule: Q ##X009 (ip), vehicle: saline",161 % of control
same,T/C,"endpoint: mean survival time, dose: 180.0 mg/kg/injection, schedule: Q ##X009 (ip), vehicle: saline",176 % of control
same,T/C,"endpoint: median survival time, dose: 22.5 mg/kg/injection, schedule: Q ##X009 (ip), vehicle: saline",179 % of control
same,T/C,"endpoint: median survival time, dose: 22.5 mg/kg/injection, schedule: Q## X Z (ip), vehicle: saline",188 % of control
same,T/C,"endpoint: median survival time, dose: 45.0 mg/kg/injection, schedule: Q ##X009 (ip), vehicle: saline",198 % of control
same,T/C,"endpoint: median survival time, dose: 45.0 mg/kg/injection, schedule: Q## X Z (ip), vehicle: saline",211 % of control
same,T/C,"endpoint: median survival time, dose: 90.0 mg/kg/injection, schedule: Q ##X009 (ip), vehicle: saline",175 % of control
same,T/C,"endpoint: median survival time, dose: 90.0 mg/kg/injection, schedule: Q## X Z (ip), vehicle: saline",183 % of control
same,T/C,"endpoint: median survival time, dose: 180.0 mg/kg/injection, schedule: Q ##X009 (ip), vehicle: saline",169 % of control
same,T/C,"endpoint: median survival time, dose: 180.0 mg/kg/injection, schedule: Q## X Z (ip), vehicle: saline",177 % of control
OC(CBr)C(O)C(O)C(O)CBr (configuration not stated),T/C,"endpoint: median survival time, dose: 40.0 mg/kg/injection, schedule: Q01DX009 (ip), vehicle: saline",103 % of control
same,T/C,"endpoint: median survival time, dose: 40.0 mg/kg/injection, schedule: Q01DX009 (sc), vehicle: saline + alcohol",105 % of control
same,T/C,"endpoint: median survival time, dose: 40.0 mg/kg/injection, schedule: Q01DX009 (sc), vehicle: saline with Tween-80",103 % of control
same,T/C,"endpoint: median survival time, dose: 80.0 mg/kg/injection, schedule: Q01DX009 (ip), vehicle: saline",113 % of control
same,T/C,"endpoint: median survival time, dose: 80.0 mg/kg/injection, schedule: Q01DX009 (sc), vehicle: saline + alcohol",116 % of control
same,T/C,"endpoint: median survival time, dose: 100.0 mg/kg/injection, schedule: Q01DX009 (ip), vehicle: saline with Tween-80",100 % of control
same,T/C,"endpoint: median survival time, dose: 100.0 mg/kg/injection, schedule: Q01DX009 (sc), vehicle: saline with Tween-80",103 % of control
same,T/C,"endpoint: median survival time, dose: 108.0 mg/kg/injection, schedule: Q01DX Z (sc), vehicle: carboxymethylcellulose (CMC)",100 % of control
same,T/C,"endpoint: median survival time, dose: 160.0 mg/kg/injection, schedule: Q01DX009 (sc), vehicle: saline + alcohol",121 % of control
same,T/C,"endpoint: median survival time, dose: 160.0 mg/kg/injection, schedule: Q01DX009 (sc), vehicle: saline with Tween-80",103 % of control
same,T/C,"endpoint: median survival time, dose: 200.0 mg/kg/injection, schedule: Q01DX009 (ip), vehicle: saline with Tween-80",103 % of control
same,T/C,"endpoint: median survival time, dose: 200.0 mg/kg/injection, schedule: Q01DX009 (sc), vehicle: saline with Tween-80",102 % of control
same,T/C,"endpoint: median survival time, dose: 240.0 mg/kg/injection, schedule: Q01DX009 (ip), vehicle: saline with Tween-80",124 % of control
same,T/C,"endpoint: median survival time, dose: 300.0 mg/kg/injection, schedule: Q01DX Z (sc), vehicle: carboxymethylcellulose (CMC)",100 % of control
same,T/C,"endpoint: median survival time, dose: 320.0 mg/kg/injection, schedule: Q01DX009 (sc), vehicle: saline with Tween-80",109 % of control
same,T/C,"endpoint: median survival time, dose: 400.0 mg/kg/injection, schedule: Q01DX009 (ip), vehicle: saline with Tween-80",103 % of control
same,T/C,"endpoint: median survival time, dose: 400.0 mg/kg/injection, schedule: Q01DX009 (sc), vehicle: saline with Tween-80",110 % of control
same,T/C,"endpoint: median survival time, dose: 480.0 mg/kg/injection, schedule: Q01DX009 (ip), vehicle: saline with Tween-80",88 % of control
same,T/C,"endpoint: median survival time, dose: 500.0 mg/kg/injection, schedule: Q01DX Z (sc), vehicle: carboxymethylcellulose (CMC)",100 % of control
same,T/C,"endpoint: median survival time, dose: 640.0 mg/kg/injection, schedule: Q01DX009 (ip), vehicle: saline with Tween-80",93 % of control
same,T/C,"endpoint: median survival time, dose: 640.0 mg/kg/injection, schedule: Q01DX009 (sc), vehicle: saline with Tween-80",104 % of control
same,T/C,"endpoint: median survival time, dose: 800.0 mg/kg/injection, schedule: Q01DX009 (ip), vehicle: saline with Tween-80",98 % of control
same,T/C,"endpoint: median survival time, dose: 800.0 mg/kg/injection, schedule: Q01DX009 (sc), vehicle: saline with Tween-80",111 % of control
same,T/C,"endpoint: median survival time, dose: 960.0 mg/kg/injection, schedule: Q01DX009 (ip), vehicle: saline with Tween-80",96 % of control
N=C(N)Cc1ccc(NC(=O)c2ccc(C(=O)Nc3ccc(CC(=N)N)cc3)cc2)cc1,T/C,[6],110 % of control
same,T/C,[1],105 % of control
same,T/C,[2],115 % of control
same,T/C,[3],110 % of control
same,T/C,[4],115 % of control
